Measured values reported in the CheMixHub ionic liquid set.

Test: xn = mol fraction of the nth substance listed

CCCC[n+]1ccn(C)c1.O=[N+]([O-])[O-] + CCCO
101 kPa
Conditions	viscosity [mPa·s]
288.15 K, x2 = 0.121	176
288.15 K, x2 = 0.471	34.53
293.15 K, x2 = 0.673	11.32
298.15 K, x2 = 0.673	9.79
308.15 K, x2 = 0.471	16.82
313.15 K, x2 = 0.364	21.01
318.15 K, x2 = 0.471	12.54
318.15 K, x2 = 0.554	9.21
323.15 K, x2 = 0.121	31.91
323.15 K, x2 = 0.471	10.97
328.15 K, x2 = 0.471	9.68
328.15 K, x2 = 0.755	3.24
328.15 K, x2 = 0.857	2.14
333.15 K, x2 = 0.554	6.37

O=C(O)CCl + CCC[N+](CCC)(CCC)CCC.[Br-]
100 kPa, x2 = 0.333
Conditions	electrical conductivity [S/m]	viscosity [mPa·s]
308.15 K	0.136	61.13
328.15 K	0.345	21.57

CC(=O)[O-].Cn1cc[nH+]c1 + CCO
293.15 K, 101.3 kPa
Conditions	electrical conductivity [S/m]
x2 = 0	0.326
x2 = 0.9371	0.448

CCCC[n+]1ccn(C)c1.O=[N+]([O-])[O-] + CCO
101 kPa
Conditions	viscosity [mPa·s]
283.15 K, x2 = 0.447	35.48
288.15 K, x2 = 0.352	51.47
288.15 K, x2 = 0.663	9.58
288.15 K, x2 = 0.748	6.39
293.15 K, x2 = 0.254	67.9
293.15 K, x2 = 0.4	31.2
293.15 K, x2 = 0.748	5.61
298.15 K, x2 = 0	159
298.15 K, x2 = 0.11	105.5
298.15 K, x2 = 0.2	58.3
298.15 K, x2 = 0.663	7.62
298.15 K, x2 = 0.748	4.83
303.15 K, x2 = 0.447	16.15
303.15 K, x2 = 0.6	10.1
303.15 K, x2 = 0.852	2.46
308.15 K, x2 = 0.11	59.6
308.15 K, x2 = 0.2	38.6
308.15 K, x2 = 0.352	21.4
308.15 K, x2 = 0.663	5.77
313.15 K, x2 = 0.11	47.55
313.15 K, x2 = 0.2	32.1
313.15 K, x2 = 0.254	29.2
318.15 K, x2 = 0.2	26.9
318.15 K, x2 = 0.254	24.53
318.15 K, x2 = 0.4	14.2
318.15 K, x2 = 0.852	1.9
328.15 K, x2 = 0.447	7.87
333.15 K, x2 = 0.254	15.52

CCOS(=O)(=O)[O-].CC[n+]1ccn(C)c1 + CCO
298.15 K, 101 kPa
Conditions	viscosity [mPa·s]
x2 = 0.2187	47.7
x2 = 0.7508	5.08
x2 = 0.7866	4.31

CC[N+]1(C)CCCC1.COP(=O)([O-])OC + CCO
100 kPa
Conditions	viscosity [mPa·s]
293.15 K, x1 = 0.0534	2.2
293.15 K, x1 = 0.1535	5.03
298.15 K, x1 = 0.1535	4.5
298.15 K, x1 = 0.306	11.71
303.15 K, x1 = 0.1535	4.05
303.15 K, x1 = 1	123.5
308.15 K, x1 = 0.5052	20.8
308.15 K, x1 = 0.6938	40.6
308.15 K, x1 = 1	93.5
318.15 K, x1 = 0.1054	2.13
323.15 K, x1 = 0.0534	1.37
323.15 K, x1 = 0.1535	2.82
323.15 K, x1 = 0.2015	3.64
323.15 K, x1 = 0.6938	22.8
323.15 K, x1 = 0.8049	30.6
328.15 K, x1 = 0.1054	1.84
328.15 K, x1 = 0.2015	3.34
328.15 K, x1 = 0.6022	14.74
328.15 K, x1 = 0.8049	24.8
333.15 K, x1 = 0.2015	3.05
338.15 K, x1 = 0.0534	1.1
338.15 K, x1 = 0.9073	20.5
338.15 K, x1 = 1	24

CC[n+]1ccn(CCOC)c1.N#C[S-] + CCO
100 kPa
Conditions	viscosity [mPa·s]
293.15 K, x1 = 0.1	2.15
293.15 K, x1 = 0.3995	8.78
293.15 K, x1 = 0.6	20
293.15 K, x1 = 0.797	42.3
298.15 K, x1 = 0.3002	4.94
303.15 K, x1 = 0.3002	4.39
303.15 K, x1 = 0.8964	35.9
303.15 K, x1 = 1	44.3
308.15 K, x1 = 0.1999	2.58
308.15 K, x1 = 0.7	16.96
308.15 K, x1 = 0.797	23.4
308.15 K, x1 = 0.8964	29.6
308.15 K, x1 = 1	36
313.15 K, x1 = 0.3995	5.28
313.15 K, x1 = 0.797	19.8
318.15 K, x1 = 0.1999	2.14

CCOS(=O)(=O)[O-].CC[n+]1ccn(C)c1 + CCO + CCOC(C)(C)C
298.15 K, 101 kPa
Conditions	viscosity [mPa·s]
x2 = 0, x3 = 0	100.4
x2 = 0.1271, x3 = 0	65.5
x2 = 0.1281, x3 = 0	66.1
x2 = 0.2039, x3 = 0	49.8
x2 = 0.2187, x3 = 0	47.7
x2 = 0.3088, x3 = 0	34.69
x2 = 0.3256, x3 = 0	32.21
x2 = 0.3598, x3 = 0	28.75
x2 = 0.4147, x3 = 0	22.88
x2 = 0.4336, x3 = 0	21.39
x2 = 0.4604, x3 = 0	18.98
x2 = 0.5103, x3 = 0	15.4
x2 = 0.5223, x3 = 0	14.78
x2 = 0.5724, x3 = 0	11.74
x2 = 0.5926, x3 = 0	10.83
x2 = 0.5951, x3 = 0	10.65
x2 = 0.712, x3 = 0	6.13
x2 = 0.7174, x3 = 0	5.98
x2 = 0.7508, x3 = 0	5.08
x2 = 0.7676, x3 = 0	4.68
x2 = 0.7866, x3 = 0	4.31
x2 = 0.806, x3 = 0	3.86
x2 = 0.8666, x3 = 0	2.709
x2 = 0.9026, x3 = 0	2.189
x2 = 0.9062, x3 = 0	2.138
x2 = 0.9504, x3 = 0	1.628
x2 = 0.9522, x3 = 0	1.589

CCOS(=O)(=O)[O-].CC[n+]1ccn(C)c1 + CCO + O
298.15 K, 101 kPa
Conditions	viscosity [mPa·s]
x2 = 0.0425, x3 = 0.9493	1.473
x2 = 0.0462, x3 = 0.9365	1.767
x2 = 0.054, x3 = 0.9172	2.239
x2 = 0.0603, x3 = 0.8923	2.787
x2 = 0.0723, x3 = 0.8613	3.311
x2 = 0.0829, x3 = 0.8208	4.237
x2 = 0.0885, x3 = 0.9037	2.015
x2 = 0.0898, x3 = 0.1724	43.71
x2 = 0.0906, x3 = 0.3653	26.4
x2 = 0.1018, x3 = 0.8819	2.162
x2 = 0.1162, x3 = 0.8569	2.603
x2 = 0.1307, x3 = 0.8254	2.848
x2 = 0.1473, x3 = 0.8454	2.302
x2 = 0.1532, x3 = 0.7862	3.265
x2 = 0.1618, x3 = 0.823	2.558
x2 = 0.1776, x3 = 0.736	3.981
x2 = 0.1798, x3 = 0.7952	2.666
x2 = 0.1867, x3 = 0.3267	19.71
x2 = 0.203, x3 = 0.4762	11.23
x2 = 0.2036, x3 = 0.7562	3.061
x2 = 0.213, x3 = 0.6721	4.695
x2 = 0.2156, x3 = 0.7777	2.443
x2 = 0.2354, x3 = 0.7098	3.148
x2 = 0.2358, x3 = 0.7503	2.537
x2 = 0.2581, x3 = 0.7192	2.751
x2 = 0.2884, x3 = 0.6757	2.836
x2 = 0.2972, x3 = 0.6968	2.342
x2 = 0.3097, x3 = 0.4125	8.578
x2 = 0.3172, x3 = 0.5831	4.026
x2 = 0.3196, x3 = 0.668	2.391
x2 = 0.3235, x3 = 0.6281	3.109
x2 = 0.3439, x3 = 0.6361	2.653
x2 = 0.3528, x3 = 0.1226	18.65
x2 = 0.354, x3 = 0.5781	3.217
x2 = 0.3804, x3 = 0.5884	2.55
x2 = 0.3862, x3 = 0.6086	2.334
x2 = 0.4044, x3 = 0.3559	6.856
x2 = 0.4138, x3 = 0.5756	2.347
x2 = 0.4195, x3 = 0.5389	2.799
x2 = 0.4403, x3 = 0.5426	2.299
x2 = 0.4582, x3 = 0.4849	2.967
x2 = 0.4657, x3 = 0.1012	12.87
x2 = 0.4793, x3 = 0.4944	2.444
x2 = 0.4911, x3 = 0.5046	2.027
x2 = 0.521, x3 = 0.4447	2.385
x2 = 0.5486, x3 = 0.4376	2.109
x2 = 0.5636, x3 = 0.3905	2.443
x2 = 0.6042, x3 = 0.159	5.533
x2 = 0.6339, x3 = 0.3399	1.976
x2 = 0.6484, x3 = 0.2101	3.5
x2 = 0.6523, x3 = 0.3414	1.735
x2 = 0.6548, x3 = 0.0654	6.067
x2 = 0.6675, x3 = 0.2976	2.007
x2 = 0.7086, x3 = 0.2767	1.737
x2 = 0.7178, x3 = 0.241	2.045
x2 = 0.7723, x3 = 0.2038	1.728
x2 = 0.8545, x3 = 0.0276	2.451
x2 = 0.8653, x3 = 0.125	1.406
x2 = 0.9072, x3 = 0.0792	1.343
x2 = 0.9667, x3 = 0.0134	1.317

CCCC[n+]1ccn(C)c1C.F[B-](F)(F)F + CC[N+](C)(CC)CCOC.F[B-](F)(F)F
100 kPa, x2 = 0
Conditions	electrical conductivity [S/m]
333.15 K	0.335
338.15 K	0.447
343.15 K	0.53
348.15 K	0.63

CCCCn1cc[n+](CCOCCOCCOCC[n+]2ccn(CCCC)c2)c1.O=S(=O)([N-]S(=O)(=O)C(F)(F)F)C(F)(F)F.O=S(=O)([N-]S(=O)(=O)C(F)(F)F)C(F)(F)F + CC[n+]1ccn(C)c1.N#C[N-]C#N + O=S(=O)([N-]S(=O)(=O)C(F)(F)F)C(F)(F)F.[Li+]
100 kPa, x1 = 0.1386, x2 = 0.7575
Conditions	electrical conductivity [S/m]
298 K	0.61
303 K	0.773
313 K	0.902
323 K	1.18
333 K	1.51
344 K	1.89

CCOS(=O)(=O)[O-].CC[n+]1ccn(C)c1 + CC[n+]1ccn(C)c1.N#C[S-]
Conditions	viscosity [mPa·s]
353.15 K, 100 kPa, x2 = 0	15

CCOS(=O)(=O)[O-].CC[n+]1ccn(C)c1 + CC[n+]1ccn(C)c1.O=S(=O)([N-]S(=O)(=O)C(F)(F)F)C(F)(F)F
Conditions	viscosity [mPa·s]
298.15 K, 100 kPa, x2 = 0	100.6

[I-].[Li+] + CC[n+]1ccn(C)c1.O=S(=O)([N-]S(=O)(=O)C(F)(F)F)C(F)(F)F
electrical conductivity [S/m], 101 kPa
Conditions	x2 = 0.8099	x2 = 0.8475	x2 = 0.8826	x2 = 0.9207	x2 = 0.9587
288.15 K	–	0.225	0.294	0.385	0.497
298.15 K	0.286	0.376	0.473	0.602	0.744
333.15 K	1.06	1.25	1.43	1.66	1.94

[I-].[Li+] + CC[n+]1ccn(C)c1.O=S(=O)([O-])C(F)(F)F
electrical conductivity [S/m], 101 kPa
Conditions	288.15 K	298.15 K	333.15 K
x1 = 0.007746	0.575	0.843	2.22
x1 = 0.01537	0.548	0.817	2.15
x2 = 0.9746	0.556	0.827	2.17

NCCOCCO + CN1CCCC1=O + CCCC[n+]1ccn(C)c1.O=S(=O)([N-]S(=O)(=O)C(F)(F)F)C(F)(F)F
viscosity [mPa·s], 101 kPa
Conditions	293.15 K	298.15 K	303.15 K	308.15 K	313.15 K	318.15 K	323.15 K	328.15 K	333.15 K
x1 = 0.2949, x2 = 0.6792	5.359	4.682	4.146	3.69	3.316	3.017	2.747	2.523	2.335
x1 = 0.3615, x2 = 0.5637	8.078	6.927	6.008	5.26	4.651	4.139	3.714	3.359	3.062
x1 = 0.4113, x2 = 0.453	12.21	10.27	8.74	7.52	6.54	5.736	5.069	4.517	4.053

CC(=O)[O-].Cn1cc[nH+]c1 + COS(=O)(=O)[O-].Cn1cc[n+](C)c1
298.15 K, 100 kPa
Conditions	viscosity [mPa·s]
x1 = 0.1	90.2
x1 = 0.19	77.2
x1 = 0.31	56.3
x1 = 0.4	40.7
x1 = 0.5	35.3
x1 = 0.59	27.7
